Test system: Human hepatic cancer cells HepG2
Test: TG production inhibiting activity (14C-acetic acid incorporation into TG) in HepG2 cells
Format: cell-based
Details: Homo sapiens, HepG2, group criterion
Procedure, shortened: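 HepG2 cells cultured 6 days in eRDF with 10% bovine serum, then in serum-free eRDF given compound (diluted from 20 mM DMSO stock) plus 14C-acetic acid for one day at 37 °C, 5% CO2. Lipids extracted with hexane/isopropanol 2:1 and separated by TLC; the TG spot was cut out and counted by liquid scintillation.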

[1] = alternatives: IC50 less than 10 μM, or at least 30% inhibition at 1 μM, or at least 50% inhibition at 10 μM
[2] = alternatives: IC50 at least 10 μM and less than 100 μM, or at least 5% and less than 30% inhibition at 1 μM, or at least 30% and less than 50% inhibition at 10 μM

Row | Structure (SMILES) | IC50 [1] [µM] | IC50 [2] [µM]
1 | C#CCOc1ccc2oc(-c3oc(=O)c(C)c(O)c3C)cc2c1 [Example 215, 3,5-dimethyl-4-hydroxy-6-(5-(2-propyn-1-yloxy)benzofuran-2-yl)-2H-pyran-2-one] | < 10 | –
2 | CCOC(=O)CCCCCOc1ccc2oc(-c3oc(=O)c(C)c(O)c3C)cc2c1 [Example 217, 3,5-dimethyl-6-(5-(5-(ethoxycarbonyl)pentyloxy)benzofuran-2-yl)-4-hydroxy-2H-pyran-2-one] | – | 10 to 100
3 | Cc1c(-c2cc3cc(OCC4CCCCN4C(=O)OC(C)(C)C)ccc3o2)oc(=O)c(C)c1O (stereo not shown) [Example 220, 6-(5-(1-t-butoxycarbonylpiperidin-2-ylmethoxy)benzofuran-2-yl)-3,5-dimethyl-4-hydroxy-2H-pyran-2-one] | – | 10 to 100
4 | Cc1c(-c2cc3cc(OC4CCN(C(=O)OC(C)(C)C)CC4)ccc3o2)oc(=O)c(C)c1O [Example 222, 6-(5-(1-t-butoxycarbonylpiperidin-4-yloxy)benzofuran-2-yl)-3,5-dimethyl-4-hydroxy-2H-pyran-2-one] | – | 10 to 100
5 | Cc1c(-c2cc3cc(OCCCCNC(=O)OC(C)(C)C)ccc3o2)oc(=O)c(C)c1O [Example 224, 6-(5-(4-(t-butoxycarbonylamino)butoxy)benzofuran-2-yl)-3,5-dimethyl-4-hydroxy-2H-pyran-2-one] | – | 10 to 100
6 | Cc1c(-c2cc3cc(OCc4cccc(F)c4)ccc3o2)oc(=O)c(C)c1O [Example 226, 3,5-dimethyl-6-(5-(3-fluorobenzyloxy)benzofuran-2-yl)-4-hydroxy-2H-pyran-2-one] | < 10 | –
7 | Cc1c(-c2cc3cc(OCc4ccc(F)cc4)ccc3o2)oc(=O)c(C)c1O [Example 228, 3,5-dimethyl-6-(5-(4-fluorobenzyloxy)benzofuran-2-yl)-4-hydroxy-2H-pyran-2-one] | < 10 | –
8 | Cc1c(-c2cc3cc(OCc4ccccc4[N+](=O)[O-])ccc3o2)oc(=O)c(C)c1O [Example 230, 3,5-dimethyl-4-hydroxy-6-(5-(2-nitrobenzyloxy)benzofuran-2-yl)-2H-pyran-2-one] | – | 10 to 100
9 | COc1cccc(COc2ccc3oc(-c4oc(=O)c(C)c(O)c4C)cc3c2)c1 [Example 236, 3,5-dimethyl-4-hydroxy-6-(5-(3-methoxybenzyloxy)benzofuran-2-yl)-2H-pyran-2-one] | < 10 | –
10 | Cc1c(-c2cc3cc(OCc4ccccc4Cl)ccc3o2)oc(=O)c(C)c1O [Example 240, 6-(5-(2-chlorobenzyloxy)benzofuran-2-yl)-3,5-dimethyl-4-hydroxy-2H-pyran-2-one] | – | 10 to 100
11 | Cc1c(-c2cc3cc(OCc4cccc(Cl)c4)ccc3o2)oc(=O)c(C)c1O [Example 242, 6-(5-(3-chlorobenzyloxy)benzofuran-2-yl)-3,5-dimethyl-4-hydroxy-2H-pyran-2-one] | < 10 | –
12 | Cc1c(-c2cc3cc(OCc4cncs4)ccc3o2)oc(=O)c(C)c1O [Example 243, 3,5-dimethyl-4-hydroxy-6-(5-(5-thiazolylmethoxy)benzofuran-2-yl)-2H-pyran-2-one] | < 10 | –
13 | CC(=O)Oc1c(C)c(-c2cc3cc(OCc4sc(Cl)nc4Cl)ccc3o2)oc(=O)c1C [Example 244, 4-acetyloxy-6-(5-(2,4-dichloro-5-thiazolylmethoxy)benzofuran-2-yl)-3,5-dimethyl-2H-pyran-2-one] | < 10 | –
14 | Cc1c(-c2cc3cc(OCc4ccsc4)ccc3o2)oc(=O)c(C)c1O [Example 246, 3,5-dimethyl-4-hydroxy-6-(5-(3-thienylmethoxy)benzofuran-2-yl)-2H-pyran-2-one] | < 10 | –
15 | Cc1c(-c2cc3cc(OCc4cocn4)ccc3o2)oc(=O)c(C)c1O [Example 249, 3,5-dimethyl-4-hydroxy-6-(5-(4-oxazolylmethoxy)benzofuran-2-yl)-2H-pyran-2-one] | < 10 | –
16 | Cc1c(-c2cc3cc(N(C)C(=O)c4ccccc4)ccc3o2)oc(=O)c(C)c1O [Example 250, 6-(5-(N-benzoyl-N-methylamino)benzofuran-2-yl)-3,5-dimethyl-4-hydroxy-2H-pyran-2-one] | < 10 | –
17 | Cc1c(-c2cc3cc(N(C)C(=O)Cc4ccccc4)ccc3o2)oc(=O)c(C)c1O [Example 251, 3,5-dimethyl-4-hydroxy-6-(5-(N-methyl-N-(phenylacetyl)amino)benzofuran-2-yl)-2H-pyran-2-one] | < 10 | –
18 | Cc1c(-c2cc3cc(N(C)C(=O)c4cccs4)ccc3o2)oc(=O)c(C)c1O [Example 252, 3,5-dimethyl-4-hydroxy-6-(5-(N-methyl-N-(2-thienylcarbonyl)amino)benzofuran-2-yl)-2H-pyran-2-one] | < 10 | –
19 | Cc1c(-c2cc3cc(N(C)C(=O)OC(C)(C)C)ccc3o2)oc(=O)c(C)c1O [Example 255, 6-(5-(N-(t-butoxycarbonyl)-N-methylamino)benzofuran-2-yl)-3,5-dimethyl-4-hydroxy-2H-pyran-2-one] | < 10 | –

The remaining lines, values ahead:

Row | IC50 [1] [µM] | IC50 [2] [µM] | Structure (SMILES)
20 | – | 10 to 100 | Cc1c(-c2cc3cc(N(C)C(=O)c4cccnc4)ccc3o2)oc(=O)c(C)c1O [Example 253, 3,5-dimethyl-4-hydroxy-6-(5-(N-methyl-N-(3-pyridylcarbonyl)amino)benzofuran-2-yl)-2H-pyran-2-one]
21 | – | 10 to 100 | Cc1c(-c2cc3cc(N(C)C(=O)C(C)C)ccc3o2)oc(=O)c(C)c1O [Example 254, 3,5-dimethyl-4-hydroxy-6-(5-(N-isobutyryl-N-methylamino)benzofuran-2-yl)-2H-pyran-2-one]
22 | < 10 | – | CC(=O)Oc1c(C)c(-c2cc3cc(OS(=O)(=O)C(F)(F)F)ccc3o2)oc(=O)c1C [Example 257, 4-acetyloxy-3,5-dimethyl-6-(5-trifluoromethanesulfonyloxybenzofuran-2-yl)-2H-pyran-2-one]
23 | – | 10 to 100 | Cc1c(-c2cc3c(OCc4ccccc4)cccc3o2)oc(=O)c(C)c1O [Example 258, 6-(4-benzyloxybenzofuran-2-yl)-3,5-dimethyl-4-hydroxy-2H-pyran-2-one]
24 | < 10 | – | COC(=O)c1ccc2oc(-c3oc(=O)c(C)c(OC(C)=O)c3C)cc2c1 [Example 259, 4-acetyloxy-3,5-dimethyl-6-(5-(methoxycarbonyl)benzofuran-2-yl)-2H-pyran-2-one]
25 | < 10 | – | CC(=O)Oc1c(C)c(-c2cc3c(OCc4ccccc4)cccc3o2)oc(=O)c1C [Example 260, 4-acetyloxy-6-(4-benzyloxybenzofuran-2-yl)-3,5-dimethyl-2H-pyran-2-one]
26 | – | 10 to 100 | CC(=O)Oc1c(C)c(-c2cc3cc(O)ccc3o2)oc(=O)c1C [Example 261, 4-acetyloxy-3,5-dimethyl-6-(5-hydroxybenzofuran-2-yl)-2H-pyran-2-one]
27 | – | 10 to 100 | Cc1c(-c2cc3cc(O)ccc3o2)oc(=O)c(C)c1O [Example 262, 3,5-dimethyl-4-hydroxy-6-(5-hydroxybenzofuran-2-yl)-2H-pyran-2-one]
28 | – | 10 to 100 | COc1ccc(C(=O)Oc2ccc3oc(-c4oc(=O)c(C)c(OC(C)=O)c4C)cc3c2)cc1 [Example 263, 4-acetyloxy-3,5-dimethyl-6-(5-(4-methoxybenzoyloxy)benzofuran-2-yl)-2H-pyran-2-one]
29 | – | 10 to 100 | CC(=O)Oc1c(C)c(-c2cc3cc(C(=O)O)ccc3o2)oc(=O)c1C [Example 264, 4-acetyloxy-6-(5-carboxybenzofuran-2-yl)-3,5-dimethyl-2H-pyran-2-one]
30 | < 10 | – | CC(=O)Oc1c(C)c(-c2cc3c(OC(C)=O)cccc3o2)oc(=O)c1C [Example 265, 4-acetyloxy-6-(4-acetyloxybenzofuran-2-yl)-3,5-dimethyl-2H-pyran-2-one]
31 | – | 10 to 100 | COc1cccc2oc(-c3oc(=O)c(C)c(OC(C)=O)c3C)cc12 [Example 266, 4-acetyloxy-3,5-dimethyl-6-(4-methoxybenzofuran-2-yl)-2H-pyran-2-one]
32 | – | 10 to 100 | COc1cccc2oc(-c3oc(=O)c(C)c(O)c3C)cc12 [Example 267, 3,5-dimethyl-4-hydroxy-6-(4-methoxybenzofuran-2-yl)-2H-pyran-2-one]
33 | < 10 | – | COc1ccc2oc(-c3oc(=O)c(C)c(OC(C)=O)c3C)cc2c1 [Example 268, 4-acetyloxy-3,5-dimethyl-6-(5-methoxybenzofuran-2-yl)-2H-pyran-2-one]
34 | – | 10 to 100 | CC(=O)Oc1ccc2oc(-c3oc(=O)c(C)c(OC(C)=O)c3C)cc2c1 [Example 269, 4-acetyloxy-6-(5-acetyloxybenzofuran-2-yl)-3,5-dimethyl-2H-pyran-2-one]
35 | < 10 | – | CC(=O)Oc1c(C)c(-c2cc3cc(OCc4ccccc4)ccc3o2)oc(=O)c1C [Example 270, 4-acetyloxy-6-(5-benzyloxybenzofuran-2-yl)-3,5-dimethyl-2H-pyran-2-one]
36 | < 10 | – | Cc1c(-c2cc3cc(OCc4ccccc4)ccc3o2)oc(=O)c(C)c1O [Example 271, 6-(5-benzyloxybenzofuran-2-yl)-3,5-dimethyl-4-hydroxy-2H-pyran-2-one]
37 | – | 10 to 100 | Cc1c(-c2cc3ccc(O)cc3o2)oc(=O)c(C)c1O [Example 272, 3,5-dimethyl-4-hydroxy-6-(6-hydroxybenzofuran-2-yl)-2H-pyran-2-one]
38 | – | 10 to 100 | COc1ccc2cc(-c3oc(=O)c(C)c(OC(C)=O)c3C)oc2c1 [Example 273, 4-acetyloxy-3,5-dimethyl-6-(6-methoxybenzofuran-2-yl)-2H-pyran-2-one]
39 | < 10 | – | CC(=O)Oc1c(C)c(-c2cc3cc(OS(=O)(=O)c4ccc(C)cc4)ccc3o2)oc(=O)c1C [Example 274, 4-acetyloxy-3,5-dimethyl-6-(5-p-toluenesulfonyloxybenzofuran-2-yl)-2H-pyran-2-one]
40 | – | 10 to 100 | CC(=O)Oc1ccc2cc(-c3oc(=O)c(C)c(OC(C)=O)c3C)oc2c1 [Example 275, 4-acetyloxy-6-(6-acetyloxybenzofuran-2-yl)-3,5-dimethyl-2H-pyran-2-one]

Source: US6589984B1, “Benzofurylpyrone derivatives” (Teijin Limited, priority 1998, dated 2003)
